Test results published in paper PMC5394417, “Investigating the molecular mechanism of positive and negative allosteric modulators in the calcium-sensing receptor dimer” (Scientific Reports, 2017).

Tests used:
Format in all cases: cell-based
HA-E837A CaSR mutant = target: T1, HA-E837A CaSR mutant (Rattus norvegicus, UniProt P48442, E837A); assay: IP-One assay, HEK293T transiently transfected; details: for EC50 / pEC50 ± S.E.M. / Max ± S.E.M.: HA-E837A; for effect on the Ca^2+-induced response: E837A mutant
T1 construct: mGluR5 signal peptide (N); expressed in transfected cells; host or cells: HEK293T
T1 sequence (P48442 20-1079 E837A): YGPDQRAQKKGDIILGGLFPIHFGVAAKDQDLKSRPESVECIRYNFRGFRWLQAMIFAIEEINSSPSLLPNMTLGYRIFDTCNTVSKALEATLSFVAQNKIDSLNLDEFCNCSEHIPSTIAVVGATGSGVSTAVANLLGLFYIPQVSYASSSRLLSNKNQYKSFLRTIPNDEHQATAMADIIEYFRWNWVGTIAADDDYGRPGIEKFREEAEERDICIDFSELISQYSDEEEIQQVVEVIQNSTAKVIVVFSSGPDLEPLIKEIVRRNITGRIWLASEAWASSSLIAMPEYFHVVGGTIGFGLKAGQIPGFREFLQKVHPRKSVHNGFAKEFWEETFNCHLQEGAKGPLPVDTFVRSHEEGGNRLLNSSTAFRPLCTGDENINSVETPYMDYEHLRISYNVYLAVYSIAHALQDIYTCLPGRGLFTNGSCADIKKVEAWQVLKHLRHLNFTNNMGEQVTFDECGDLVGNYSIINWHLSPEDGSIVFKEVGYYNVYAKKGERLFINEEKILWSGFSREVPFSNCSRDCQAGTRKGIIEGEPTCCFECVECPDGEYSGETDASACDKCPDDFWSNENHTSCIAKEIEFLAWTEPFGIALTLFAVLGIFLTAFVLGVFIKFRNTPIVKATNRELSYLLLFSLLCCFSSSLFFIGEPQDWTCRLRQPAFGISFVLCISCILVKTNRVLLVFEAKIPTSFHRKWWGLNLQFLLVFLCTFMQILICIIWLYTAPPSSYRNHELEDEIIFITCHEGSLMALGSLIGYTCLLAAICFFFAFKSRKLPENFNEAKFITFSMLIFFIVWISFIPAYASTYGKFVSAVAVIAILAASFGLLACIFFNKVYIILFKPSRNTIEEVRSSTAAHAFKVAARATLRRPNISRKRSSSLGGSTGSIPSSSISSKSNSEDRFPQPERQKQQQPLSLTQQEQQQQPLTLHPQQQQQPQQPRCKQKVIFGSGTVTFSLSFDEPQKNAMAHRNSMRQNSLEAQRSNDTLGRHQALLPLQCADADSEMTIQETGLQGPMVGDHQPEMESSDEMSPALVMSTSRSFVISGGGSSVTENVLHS
Method: (§1) Human embryonic kidney (HEK) 293T cells were cultured in DMEM supplemented with 10% dFBS and 1% P/S at 37 °C and 5% CO2. 48 h prior to assay, transient transfection was performed using Lipofectamine 2000 as the transfection reagent. White opaque 96-well culture plates (PerkinElmer, Waltham, MA, USA) were used for the ELISA and the TR-FRET dimerization assay, while clear tissue culture treated 96-well plates (Corning, Corning, NY, USA) were used for the IP-One assay. Both plate types were coated with poly-D-lysine before addition of cells and transfection mix. 0.25 μl/well of Lipofectamine 2000 were diluted in 25 μl/well of Opti-MEM and incubated at room temperature (RT) for 5 min. 0.03 μg/well of DNA was diluted in 25 μl/well of Opti-MEM, and subsequently mixed with the Lipofectamine 2000 dilution and incubated 20 min at RT before addition to the plates. Cell suspensions of 170.000 HEK293T cells/mL were prepared in complete growth medium and 100 μl/well (17.000 cells/well) was added to the plates, which were incubated for 48 h at 37 °C and 5% CO2 before performing assays.
(§2) Functional activity was measured using the IP-One assay, which is an IP1 accumulation assay. For agonist testing, ligands were prepared in final concentrations in ligand buffer (HBSS, 20 mM HEPES, pH 7.4 supplemented with 20 mM LiCl). Cells were washed once with 100 μl/well of assay buffer (HBSS, 20 mM HEPES, pH 7.4) and 50 μl/well of agonist solution was added after which plates were incubated at 37 °C for 30 min. Subsequently, ligand solutions were removed and cells were washed with 100 μl/well of assay buffer. Cell lysis was performed by addition of 30 μl/well of IP-One Conjugate & Lysis Buffer (Cisbio Bioassays, Codolet, France) and plates were incubated at RT for 30 min. Afterwards, 30 μl/well of assay buffer was added to dilute the cell lysate. 10 μl/well of cell lysate was transferred from the 96-well plate to a 384-well Optiplate and 10 μl/well of detection solution (Assay buffer + 2.5% of anti-IP1 antibody cryptate Terbium conjugate + 2.5% IP1-d2 conjugate (Cisbio Bioassays, Codolet, France)) was also added. The 384-well plate was incubated for 1 h at RT in dark before being measured on an EnVision plate reader (PerkinElmer, Waltham, MA, USA). Upon excitation at 340 nm, emission at 615 nm and 665 nm was measured, and the FRET ratio (665 nm/615 nm) was converted to IP1 concentrations by interpolating values from an IP1 standard curve generated from a provided IP1 calibrator (Cisbio Bioassays, Codolet, France). When testing allosteric modulators, cells were pre-incubated for 30 min at 37 °C with 50 μl/well of ligand buffer supplemented with allosteric modulator and a final concentration of 1% DMSO. Afterwards, the buffer solution was removed and 50 μl/well of agonist solution in ligand buffer supplemented with allosteric modulator and a final concentration of 1% DMSO was added. Plates were incubated for 30 min at 37 °C followed by one wash in 100 μl/well of assay buffer. Cell lysis and detection was performed as described above.

[1] = target: T2, S170A/E837A:F801A/E837A heterodimer (Rattus norvegicus, UniProt P48442, E837A/F801A/S170A); assay: IP-One trans-activation assay, co-expression 1:1 in HEK293T
T2 construct: mGluR5 signal peptide (N); expressed in transfected cells; host or cells: HEK293T
Method: as §1, §2

[2] = target: T3, S170A:F801A/E837A heterodimer (Rattus norvegicus, UniProt P48442, E837A/F801A/S170A); assay: as above
T3 construct: mGluR5 signal peptide (N); expressed in transfected cells; host or cells: HEK293T
Method: as §1, §2

T2 sequence (P48442 20-1079 S170A/E837A): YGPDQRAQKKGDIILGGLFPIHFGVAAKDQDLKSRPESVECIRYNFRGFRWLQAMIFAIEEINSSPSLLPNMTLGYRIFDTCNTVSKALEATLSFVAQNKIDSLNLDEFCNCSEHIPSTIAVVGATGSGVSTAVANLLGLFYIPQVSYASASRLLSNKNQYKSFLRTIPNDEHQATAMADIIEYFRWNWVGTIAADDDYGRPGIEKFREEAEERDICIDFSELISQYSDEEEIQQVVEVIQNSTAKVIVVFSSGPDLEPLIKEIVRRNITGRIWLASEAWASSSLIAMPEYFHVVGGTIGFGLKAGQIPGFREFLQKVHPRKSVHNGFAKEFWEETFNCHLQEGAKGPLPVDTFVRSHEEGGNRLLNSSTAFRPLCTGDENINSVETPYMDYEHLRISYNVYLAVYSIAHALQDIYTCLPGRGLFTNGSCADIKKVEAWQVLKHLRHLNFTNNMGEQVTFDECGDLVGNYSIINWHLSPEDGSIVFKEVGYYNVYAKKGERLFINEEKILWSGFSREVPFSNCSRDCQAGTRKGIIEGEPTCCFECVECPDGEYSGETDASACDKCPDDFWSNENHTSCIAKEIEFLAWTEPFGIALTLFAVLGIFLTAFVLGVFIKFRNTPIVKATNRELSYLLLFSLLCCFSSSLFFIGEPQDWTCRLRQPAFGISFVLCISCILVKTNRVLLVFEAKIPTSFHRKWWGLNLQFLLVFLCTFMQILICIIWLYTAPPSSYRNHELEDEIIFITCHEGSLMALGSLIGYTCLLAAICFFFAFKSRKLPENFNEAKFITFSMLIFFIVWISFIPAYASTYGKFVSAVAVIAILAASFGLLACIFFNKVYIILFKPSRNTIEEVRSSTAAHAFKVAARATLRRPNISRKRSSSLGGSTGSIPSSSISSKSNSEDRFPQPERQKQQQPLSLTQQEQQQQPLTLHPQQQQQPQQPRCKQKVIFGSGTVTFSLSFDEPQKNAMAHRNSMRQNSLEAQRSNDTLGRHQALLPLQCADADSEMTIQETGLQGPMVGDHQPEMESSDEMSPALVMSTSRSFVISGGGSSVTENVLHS
T2 sequence (P48442 20-1079 F801A/E837A): as the sequence (P48442 20-1079 S170A/E837A) above, with A151S, F782A counted along it
T3 sequence (P48442 20-1079 S170A): as the sequence (P48442 20-1079 S170A/E837A) above, with A818E counted along it
T3 sequence (P48442 20-1079 F801A/E837A): as the sequence (P48442 20-1079 S170A/E837A) above, with A151S, F782A counted along it

Compound: [Ca+2] [Ca^2+]
- EC50 (HA-E837A CaSR mutant; Ca^2+ alone): 3.4 mM
- pEC50 ± S.E.M. (HA-E837A CaSR mutant; Ca^2+ alone): 2.47 ± 0.01
- Max ± S.E.M. (HA-E837A CaSR mutant; Ca^2+ alone, normalized to maximum response of WT CaSR): 87 ± 16%
- EC50 (HA-E837A CaSR mutant; Ca^2+ with 1 μM NPS R-568): 3.88 mM
- pEC50 ± S.E.M. (HA-E837A CaSR mutant; Ca^2+ with 1 μM NPS R-568): 2.41 ± 0.04
- Max ± S.E.M. (HA-E837A CaSR mutant; Ca^2+ with 1 μM NPS R-568, normalized to maximum response with Ca^2+ alone for the construct): 100 ± 5%
- EC50 (HA-E837A CaSR mutant; Ca^2+ with 5 μM NPS 2143): 3.46 mM
- pEC50 ± S.E.M. (HA-E837A CaSR mutant; Ca^2+ with 5 μM NPS 2143): 2.46 ± 0.02
- Max ± S.E.M. (HA-E837A CaSR mutant; Ca^2+ with 5 μM NPS 2143, normalized to maximum response with Ca^2+ alone for the construct): 91 ± 5.7%

Compound: CC(C)(Cc1ccc2ccccc2c1)NC[C@@H](O)COc1cccc(Cl)c1C#N.Cl [NPS 2143, NPS 2143 hydrochloride]
- inhibition of Ca^2+-mediated response ([1]; S170A/E837A:F801A/E837A heterodimer, 0.2, 1 and 5 μM NPS 2143): not subjected to inhibition
- inhibition of Ca^2+-mediated response ([2]; S170A:F801A/E837A heterodimer, 5 μM NPS 2143): full inhibition
- effect on the Ca^2+-induced response (HA-E837A CaSR mutant; 5 μM NPS 2143): neither NPS R-568 nor NPS 2143 had any significant effect

Compound: COc1cccc([C@@H](C)NCCCc2ccccc2Cl)c1.Cl [NPS R-568, NPS R-568 hydrochloride]
- potentiation of Ca^2+-mediated response ([1]; S170A/E837A:F801A/E837A heterodimer, 0.05, 0.1 and 1 μM NPS R-568): not potentiated
- potentiation of Ca^2+-mediated response ([2]; S170A:F801A/E837A heterodimer, 0.05, 0.1 and 1 μM NPS R-568): potentiated
- effect on the Ca^2+-induced response (HA-E837A CaSR mutant; 1 μM NPS R-568): neither NPS R-568 nor NPS 2143 had any significant effect
